According to patent US20260207450A1, “ANTI-DANDRUFF COMPOSITIONS” (Firmenich SA, priority 2022, published 2026):
≈ marks a conversion by molar mass, not a printed value.

Assays:
M. globosa ATCC MYA-4612 = assay: Disc-diffusion assay, perfumery materials in DMSO, M. globosa; assay type: cell-based, Malassezia globosa; conditions: Malassezia globosa, 144 h
Experimental: (§1) Anti-Malassezia effect of perfumery materials in solvent in DMSO was determined using disc-diffusion assay, based on the method of J Mycol Infect 2018: 23: 91-98. In brief, working cultures of Malassezia strains were prepared from −80 C stock culture on mDixon agar plate (for M. furfur DSM 6170) or mLN agar plate (for M. restricta ATCC MYA-4611 and M. globosa ATCC MYA-4612), and cells were suspended in 0.9% saline, and spread onto mDixon or mLN agar surface to prepare lawn plate. Test samples solutions are prepared in DMSO to final concentrations of 0.2%, 1% or 2%. Discs (Whatman, 6 mm in diameter) were placed on inoculated agar plates with each Malassezia strains respectively, including M. furfur DSM 6170, M. restricta ATCC MYA-4611, and M. globosa ATCC MYA-4612. Aliquots (20 μL) of each sample solution was added to each disc. Agar plates were incubated at 30° C. for 3 days for M. furfur DSM 6170, and 6 days for M. restricta ATCC MYA-4611, and M. globosa ATCC MYA-4612. After incubation, diameters of the clear inhibition zones around the discs were measured. Inhibition zone greater than 6 mm are regarded as having anti-Malassezia effect.

[1] = test system: M. restricta ATCC MYA-4611; assay: Disc-diffusion assay, perfumery materials in DMSO, M. restricta; assay type: cell-based, Malassezia restricta; conditions: Malassezia restricta, 144 h
Experimental: as §1

M. restricta [2] = assay: Disc-diffusion assay, additional perfumery materials in DMSO, M. restricta, 4 days; assay type: cell-based, Malassezia restricta; conditions: Malassezia restricta, 96 h; Table 20; 0.5% in DMSO, 4 days; read-out: Inhibition zone diameter (mm) on M. restricta
Experimental: (§2) Anti-Malassezia effect of additional perfumery materials in DMSO was determined using disc-diffusion assay as described previously. Test samples solutions were prepared in DMSO to final concentrations of 0.5%, 1% or 2%. Discs (Whatman, 6 mm in diameter) were placed on inoculated agar plates. Aliquots (20 μL) of each sample solution was added to each disc. Agar plates were incubated at 30° C. for 4 days. After incubation, diameters of the clear inhibition zones around the discs were recorded
as §2, with “above.” for “previously.”, “recorded.” for “recorded”
Anti-Malassezia effect of additional perfumery materials in solvent in DMSO was determined using disc-diffusion assay, as described previously. Test samples solutions are prepared in DMSO to final concentrations of 0.5%. Discs (Whatman, 6 mm in diameter) were placed on inoculated agar plates. Aliquots (20 μL) of each sample solution was added to each disc. Agar plates were incubated at 30° C. for 4 days. After incubation, diameters of the clear inhibition zones around the discs were measured.

[3] = test system: Staphylococcus aureus ATCC 6538; assay: MIC assay on Staphylococcus aureus ATCC 6538; assay type: cell-based; conditions: Staphylococcus aureus, ATCC6538; TSB, 37° C., 24 h aerobically; dilutions 29 to 10000 ppm; read-out: MIC (ppm) S. aureus
Experimental: MIC assay for Staphylococcus aureus ATCC 6538 is based on Clinical Laboratory Standard Institute: CLSI/NCCLS M07-A8. Cell suspension of working cultures of S. aureus was prepared following the instructions of culture provider ATCC, USA.
(§3) A total of 26 perfumery materials were examined for an inhibition effect on Malassezia furfur and Staphylococcus aureus.

[4] = test system: Malassezia furfur DSM 6170; assay: MIC assay on Malassezia furfur DSM 6170 (resazurin); assay type: cell-based; conditions: Malassezia furfur, DSM6170; 30° C., 48 h aerobically; dilutions 29 to 10000 ppm
Experimental: The MIC assay for Malassezia furfur DSM 6170 was modified based on the method in Journal of Clinical Microbiology 2017, Vol 55: 1883-1893. In brief, working culture was prepared from stock cultures stored at −80° C. to obtain a cell suspension as the inoculum. Serial dilutions of samples, 29 to 10000 ppm, were tested to determine the MIC values for growth of Malassezia furfur DSM 6170 after at 30° C. for 48 h aerobically. Resazurin was used as growth indicator.
as §3

M. furfur DSM 6170 = assay: Disc-diffusion assay, perfumery materials in DMSO, M. furfur; assay type: cell-based, Malassezia furfur; conditions: Malassezia furfur, DSM6170, 72 h
Experimental: as §1

M. restricta [5] = assay: Disc-diffusion assay, combinations with piroctone olamine (PO) in DMSO, M. restricta; assay type: cell-based, Malassezia restricta; conditions: 4 days, ratio greater than 1.0 = boosting effect
Experimental: Anti-Malassezia effect of combinations of PO and perfumery materials in solvent DMSO against M. restricta was determined using disc-diffusion assay as described above. Aliquots (20 μL) of each sample solution was added to each disc. Agar plates were incubated at 30° C. for 4 days. After incubation, diameters of the clear inhibition zones around the discs were measured. Ratio of inhibition zone diameter of each combination to that of PO only were calculated. […] Anti-Malassezia effect of combinations of PO and perfumery raw materials mixtures in solvent DMSO was determined using disc-diffusion assay, as described above. Aliquots (20 μL) of each sample solution was added to each disc. Agar plates were incubated at 30° C. for 4 days. After incubation, diameters of the clear inhibition zones around the discs were measured. Ratio of inhibition zone diameter of each combination to that of PO only were calculated.

Compound | MIC [3] [µg/mL] | MIC [4] [µg/mL] | zone of inhibition at 1 % (M. globosa ATCC MYA-4612) [mm] | zone of inhibition at 1 % [1] [mm] | zone of inhibition at 0.5 % (M. restricta [2]) [mm] | zone of inhibition at 0.2 % (M. globosa ATCC MYA-4612) [mm] | zone of inhibition at 2 % (M. furfur DSM 6170) [mm] | zone of inhibition at 0.2 % [1] [mm] | Ratio of inhibition zone diameter (0.5% PRM + 0.1% PO) to 0.1% PO (M. restricta [5]) | Ratio of inhibition zone diameter (1% PRM + 0.35% PO) to 0.35% PO (M. restricta [5]) | zone of inhibition at 2 % (M. globosa ATCC MYA-4612) [mm] | zone of inhibition at 2 % [1] [mm]
CCOC(=O)C(C)CC (racemic) [ethyl 2-methyl butanoate, (+/−)-ethyl 2-methylbutanoate] | – | – | 6.6 | – | – | – | – | – | – | – | – | –
CCCCCCCCC1CCC(=O)O1 (racemic) [gamma-dodecalactone, (+/−)-5-octyldihydro-2(3h)-furanone] | 173 (≈ 872 µM) | 148 (≈ 746 µM) | – | – | – | 6.3 | 6.9 | – | – | – | – | –
CCCCC(CC)CO (stereo not shown) [2-ethyl-1-hexanol] | 867 (≈ 6660 µM) | 44 (≈ 338 µM) | 6.7 | 6.4 | – | – | 7.6 | – | – | – | – | –
CCCCCCCCC/C=C/C=O [(2E)-2-dodecenal] | 49 (≈ 269 µM) | 148 (≈ 812 µM) | 15.2 | 14.4 | – | – | 12.6 | 10 | 2.1 | 1.2 | 17.9 | 18.1
CCCCCCCCCCO [Mix 1-decanol, 1-decanol] | 370 (≈ 2340 µM) | 500 (≈ 3160 µM) | 15.9 | 10 | – | 6.7 | – | 8.5 | – | – | 16.4 | 25
CCCCCCCCCCCCO [Mix 1-dodecanol, 1-dodecanol] | 22 (≈ 118 µM) | – | 10.2 | 11.5 | – | 8.7 | – | 6.8 | – | – | – | –

Second part, led by results:

MIC [3] [µg/mL] | MIC [4] [µg/mL] | Compound | zone of inhibition at 1 % (M. globosa ATCC MYA-4612) [mm] | zone of inhibition at 1 % [1] [mm] | zone of inhibition at 0.5 % (M. restricta [2]) [mm] | zone of inhibition at 0.2 % (M. globosa ATCC MYA-4612) [mm] | zone of inhibition at 2 % (M. furfur DSM 6170) [mm] | zone of inhibition at 0.2 % [1] [mm] | Ratio of inhibition zone diameter (0.5% PRM + 0.1% PO) to 0.1% PO (M. restricta [5]) | Ratio of inhibition zone diameter (1% PRM + 0.35% PO) to 0.35% PO (M. restricta [5]) | zone of inhibition at 2 % (M. globosa ATCC MYA-4612) [mm] | zone of inhibition at 2 % [1] [mm]
933 (≈ 4900 µM) | – | CC(C=O)Cc1ccc(C(C)C)cc1 (racemic) [cyclamen aldehyde, (+/−)-3-(4-isopropylphenyl)-2-methylpropanal] | 6.7 | 8.2 | 7.5 | – | – | – | – | – | – | –
387 (≈ 2030 µM) | 1300 (≈ 6830 µM) | CC(C)c1cccc(C(C)CC=O)c1 (racemic) [floral butanal, (+/−)-3-(3-isopropylphenyl)butanal] | – | 8.2 | 7.5 | – | – | – | – | – | – | –
325 (≈ 1590 µM) | – | CC(C=O)Cc1ccc(C(C)(C)C)cc1 (racemic) [lilial, (+/−)-2-methyl-3-[4-(2-methyl-2-propanyl)phenyl]propanal] | 7.4 | – | – | – | – | – | – | – | – | –
330 (≈ 1460 µM) | 222 (≈ 981 µM) | CCCCC[C@H]1C(=O)CC[C@@H]1CC(=O)OC (racemic) [methyl dihydrojasmonate, methyl 2-((1 RS,2RS)-3-oxo-2-pentylcyclopentyl)acetate] | – | – | – | – | – | 6.1 | – | – | – | –
530 (≈ 2970 µM) | 222 (≈ 1250 µM) | COc1ccc(CC(C)C=O)cc1 (racemic) [para-anisyl propanal, (+/−)-3-(4-methoxyphenyl)-2-methylpropanal] | 11.6 | 14.3 | – | – | – | 6.6 | 2.0 | 1.5 | – | –
693 (≈ 4240 µM) | 222 (≈ 1360 µM) | CCCCCc1cc(C)ccn1 [4-methyl-2-pentylpyridine] | – | – | – | 6.7 | 6.7 | 6.6 | – | – | – | –
75 (≈ 398 µM) | 333 (≈ 1770 µM) | C/C(=C\c1ccc(C)cc1)CCC=O [(4E)-4-methyl-5-(4-methylphenyl)-4-pentenal] | 9 | 11.6 | – | – | 7.5 | 6.8 | 1.2 | – | 10.5 | 12
